{
  "source": "patent US20150105252A1",
  "about": "“SUBSTITUTED PYRAZOLES AS HERBICIDES” (E I DU PONT DE NEMOURS AND COMPANY, priority 2013, published 2015)",
  "key": {"pigweed [1]": {"tested_on": "pigweed", "assay": "Test C postemergence", "format": "in vivo, Amaranthus retroflexus", "text": "(§1) Seeds of plant species selected from blackgrass (Alopecurus myosuroides), ryegrass, Italian (Italian ryegrass, Lolium multiflorum), wheat (winter wheat, Triticum aestivum), galium (catchweed bedstraw, Galium aparine), corn (Zea mays), crabgrass, large (large crabgrass, Digitaria sanguinalis), foxtail, giant (giant foxtail, Setaria faberii), johnsongrass (Sorghum halepense), lambsquarters (Chenopodium album), morningglory (Ipomoea coccinea), nutsedge, yellow (yellow nutsedge, Cyperus esculentus), pigweed (redroot pigweed, Amaranthus retroflexus), ragweed (common ragweed, Ambrosia elation), soybean (Glycine max), barnyardgrass (Echinochloa crus-galli), oilseed rape (Brassica napus), waterhemp (common waterhemp, Amaranthus rudis), oat, wild (wild oat, Avena fatua), kochia (Kochia scoparia), Surinam grass (Brachiaria decumbens), foxtail, green (green foxtail, Setaria viridis), goosegrass (Eleusine indica), bromegrass, downy (downy bromegrass, Bromus tectorum), nightshade (eastern black nightshade, Solanum ptycanthum), cocklebur (common cocklebur, Xanthium strumarium), cupgrass, woolly (woolly cupgrass, Eriochloa villosa), bermudagrass (Cynodon dactylon), sunflower, (common oilseed sunflower, Helianthus annuus), Russian thistle (Salsola kali), and velvetleaf (Abutilon theophrasti) were planted into a blend of loam soil and sand and treated preemergence with test chemicals formulated in a non-phytotoxic solvent mixture which included a surfactant.\n(§2) At the same time, plants selected from these crop and weed species and also chickweed (common chickweed, Stellaria media), canarygrass (littleseed canarygrass, Phalaris minor), and deadnettle (henbit deadnettle, Lamium amplexicaule), were planted in pots containing Redi-Earth® planting medium (Scotts Company, 14111 Scottslawn Road, Marysville, Ohio 43041) comprising spaghnum peat moss, vermiculite, wetting agent and starter nutrients and treated with postemergence applications of test chemicals formulated in the same manner. Plants ranged in height from 2 to 18 cm (1- to 4-leaf stage) for postemergence treatments. Treated plants and controls were maintained in a greenhouse for 13 to 15 days, after which time all species were compared to controls and visually evaluated. Plant response ratings, summarized in Table C, are based on a scale of 0 to 100 where 0 is no effect and 100 is complete control. A dash (-) response means no test result."}, "wheat [2]": {"tested_on": "wheat", "assay": "Test C preemergence", "format": "in vivo, Triticum aestivum", "in_short": "(§3)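 Seeds sown in loam–sand blend and treated preemergence with test chemicals in non-phytotoxic solvent with surfactant; postemergence plants in peat-based medium, treated at 2–18 cm (1- to 4-leaf stage). Greenhouse 13 to 15 days, then visual rating versus controls, 0 (no effect) to 100 (complete control).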"}, "ryegrass, Italian": {"tested_on": "ryegrass, Italian", "assay": "Test C preemergence", "format": "in vivo, Lolium multiflorum", "in_short": "as §3"}, "pigweed [3]": {"tested_on": "pigweed", "assay": "Test A preemergence", "format": "in vivo, Amaranthus retroflexus", "conditions": "preemergence", "in_short": "(§4)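 After sowing in a sand–loam mix, pots received compound preemergence by directed soil spray, or postemergence once plants reached the one- to two-leaf stage (2–10 cm). Formulation contained surfactant in a non-phytotoxic solvent. Injury was scored visually after ~10 greenhouse days, 0–100 scale.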"}, "corn": {"tested_on": "corn", "assay": "Test C postemergence", "format": "in vivo, Zea mays", "text": "as §1, §2"}, "soybean": {"tested_on": "soybean", "assay": "Test C postemergence", "format": "in vivo, Glycine max", "text": "as §1, §2"}, "chickweed": {"tested_on": "chickweed", "assay": "Test C postemergence", "format": "in vivo, Stellaria media", "text": "as §1, §2"}, "wheat [4]": {"tested_on": "wheat", "assay": "Test C postemergence", "format": "in vivo, Triticum aestivum", "in_short": "as §3"}, "velvetleaf": {"tested_on": "velvetleaf", "assay": "Test A preemergence", "format": "in vivo, Abutilon theophrasti", "conditions": "preemergence", "in_short": "as §4"}, "barnyardgrass": {"tested_on": "barnyardgrass", "assay": "Test B flood", "format": "in vivo, Echinochloa crus-galli", "conditions": "250 g ai/ha, visual rating on 0 to 100 scale (0 no effect, 100 complete control), 13 to 15 days", "in_short": "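Response scored visually, 0–100 relative to controls, 13–15 days after the compound was applied into paddy water; plants were at the 2-leaf stage in pots kept flooded to 3 cm.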"}, "oilseed rape": {"tested_on": "oilseed rape", "assay": "Test C preemergence", "format": "in vivo, Brassica napus", "in_short": "as §3"}, "johnsongrass": {"tested_on": "johnsongrass", "assay": "Test C postemergence", "format": "in vivo, Sorghum halepense", "in_short": "as §3"}, "ragweed": {"tested_on": "ragweed", "assay": "Test C postemergence", "format": "in vivo, Ambrosia elation", "in_short": "as §3"}, "galium": {"tested_on": "galium", "assay": "Test C preemergence", "format": "in vivo, Galium aparine", "in_short": "as §3"}, "[5]": {"conditions": "Postemergence, 31 g ai/ha, visually evaluated after 13 to 15 days"}, "[6]": {"conditions": "postemergence, 62 g ai/ha, scale 0 to 100"}, "[7]": {"conditions": "postemergence, 250 g ai/ha, scale 0 to 100 (0 no effect, 100 complete control)"}, "[8]": {"conditions": "postemergence, 125 g ai/ha, scale 0 to 100, 0 no effect, 100 complete control"}, "[9]": {"conditions": "preemergence, 31 g ai/ha, visual rating, scale 0 to 100 (0 no effect, 100 complete control), 13 to 15 days"}, "[10]": {"conditions": "preemergence, 62 g ai/ha, 13 to 15 days, scale 0 to 100, 0 = no effect, 100 = complete control"}, "[11]": {"conditions": "preemergence, 125 g ai/ha, scale 0 to 100, 0 is no effect, 100 is complete control"}, "[12]": {"conditions": "125 g ai/ha, visual injury, 0 to 100 scale, approx. 10 days"}, "[13]": {"conditions": "500 g ai/ha, visual injury after approx. 10 days, 0 to 100 scale (0 no effect, 100 complete control)"}},
  "data": [
    {"smiles": "CCCc1cc(C(=O)NCC)nn1Cc1ccnc(C(F)(F)F)c1", "note": "[Compound 95]", "values": [
      {"measurement": "Plant response rating (scale of 0 to 100 where 0 is no effect and 100 is complete control), Pigweed", "setting": "pigweed [1]; [5]", "value": 10},
      {"measurement": "Pigweed plant response rating", "setting": "pigweed [1]; [6]", "value": 40},
      {"measurement": "Plant response rating, Pigweed", "setting": "pigweed [1]; [7]", "value": 70},
      {"measurement": "Plant response rating, Pigweed", "setting": "pigweed [1]; [8]", "value": 40},
      {"measurement": "Plant response rating (scale of 0 to 100), Wheat", "setting": "wheat [2]; Preemergence, 250 g ai/ha", "value": 90},
      {"measurement": "Wheat plant response rating", "setting": "wheat [2]; [9]", "value": 5},
      {"measurement": "Plant response rating, Wheat", "setting": "wheat [2]; [10]", "value": 55},
      {"measurement": "Wheat plant response rating", "setting": "wheat [2]; [11]", "value": 60},
      {"measurement": "Plant response rating (scale of 0 to 100), Ryegrass, Italian", "setting": "ryegrass, Italian; Preemergence, 250 g ai/ha", "value": 100},
      {"measurement": "Ryegrass, Italian plant response rating", "setting": "ryegrass, Italian; [9]", "value": 50},
      {"measurement": "Plant response rating, Ryegrass, Italian", "setting": "ryegrass, Italian; [10]", "value": 85},
      {"measurement": "Ryegrass, Italian plant response rating", "setting": "ryegrass, Italian; [11]", "value": 95},
      {"measurement": "Pigweed plant response rating", "setting": "pigweed [3]; [12]", "value": 100},
      {"measurement": "Pigweed plant response rating", "setting": "pigweed [3]; [13]", "value": 100},
      {"measurement": "Plant response rating (scale of 0 to 100 where 0 is no effect and 100 is complete control), Corn", "setting": "corn; [5]", "value": 5},
      {"measurement": "Corn plant response rating", "setting": "corn; [6]", "value": 10},
      {"measurement": "Plant response rating, Corn", "setting": "corn; [7]", "value": 10},
      {"measurement": "Plant response rating, Corn", "setting": "corn; [8]", "value": 10},
      {"measurement": "Plant response rating (scale of 0 to 100 where 0 is no effect and 100 is complete control), Soybean", "setting": "soybean; [5]", "value": 45},
      {"measurement": "Soybean plant response rating", "setting": "soybean; [6]", "value": 50},
      {"measurement": "Plant response rating, Soybean", "setting": "soybean; [8]", "value": 80},
      {"measurement": "Plant response rating (scale of 0 to 100 where 0 is no effect and 100 is complete control), Chickweed", "setting": "chickweed; [5]", "value": 85},
      {"measurement": "Chickweed plant response rating", "setting": "chickweed; [6]", "value": 100},
      {"measurement": "Plant response rating, Chickweed", "setting": "chickweed; [7]", "value": 100},
      {"measurement": "Plant response rating, Chickweed", "setting": "chickweed; [8]", "value": 100},
      {"measurement": "Plant response rating (scale of 0 to 100 where 0 is no effect and 100 is complete control), Wheat", "setting": "wheat [4]; [5]", "value": 5},
      {"measurement": "Wheat plant response rating", "setting": "wheat [4]; [6]", "value": 5},
      {"measurement": "Plant response rating, Wheat", "setting": "wheat [4]; [7]", "value": 20},
      {"measurement": "Plant response rating, Wheat", "setting": "wheat [4]; [8]", "value": 10},
      {"measurement": "Velvetleaf plant response rating", "setting": "velvetleaf; [12]", "value": 90},
      {"measurement": "Velvetleaf plant response rating", "setting": "velvetleaf; [13]", "value": 100},
      {"measurement": "Plant response rating, Barnyardgrass", "setting": "barnyardgrass", "value": 40},
      {"measurement": "Plant response rating (scale of 0 to 100), Oilseed Rape", "setting": "oilseed rape; Preemergence, 250 g ai/ha", "value": 100},
      {"measurement": "Oilseed Rape plant response rating", "setting": "oilseed rape; [9]", "value": 100},
      {"measurement": "Plant response rating, Oilseed Rape", "setting": "oilseed rape; [10]", "value": 100},
      {"measurement": "Oilseed Rape plant response rating", "setting": "oilseed rape; [11]", "value": 100},
      {"measurement": "Plant response rating (scale of 0 to 100 where 0 is no effect and 100 is complete control), Johnsongrass", "setting": "johnsongrass; [5]", "value": 0},
      {"measurement": "Johnsongrass plant response rating", "setting": "johnsongrass; [6]", "value": 0},
      {"measurement": "Plant response rating, Johnsongrass", "setting": "johnsongrass; [7]", "value": 30},
      {"measurement": "Plant response rating, Johnsongrass", "setting": "johnsongrass; [8]", "value": 5},
      {"measurement": "Plant response rating (scale of 0 to 100 where 0 is no effect and 100 is complete control), Ragweed", "setting": "ragweed; [5]", "value": 45},
      {"measurement": "Ragweed plant response rating", "setting": "ragweed; [6]", "value": 50},
      {"measurement": "Plant response rating, Ragweed", "setting": "ragweed; [7]", "value": 85},
      {"measurement": "Plant response rating, Ragweed", "setting": "ragweed; [8]", "value": 50},
      {"measurement": "Plant response rating (scale of 0 to 100), Galium", "setting": "galium; Preemergence, 250 g ai/ha", "value": 100},
      {"measurement": "Galium plant response rating", "setting": "galium; [9]", "value": 100},
      {"measurement": "Plant response rating, Galium", "setting": "galium; [10]", "value": 100},
      {"measurement": "Galium plant response rating", "setting": "galium; [11]", "value": 100}
    ]}
  ]
}
